Reference: US20020142993A1, “Pharmaceutically acceptable salts of bicyclic compounds” (DR. REDDY'S LABORATORIES LTD., priority 2000, published 2002)
Where a name gives a salt, the structure may show the parent alone.

Legend:
hPPARα = target: T1, hPPARα (Homo sapiens, UniProt Q07869); test: Determination of hPPARα activity (GAL4-LBD luciferase reporter in HEK-293 cells); type: cell-based; conditions: 50 μM compound, transfected HEK-293 cells
T1 construct: expressed in transfected cells; host or cells: HEK-293
T1 sequence (Q07869 239-466 limits assumed): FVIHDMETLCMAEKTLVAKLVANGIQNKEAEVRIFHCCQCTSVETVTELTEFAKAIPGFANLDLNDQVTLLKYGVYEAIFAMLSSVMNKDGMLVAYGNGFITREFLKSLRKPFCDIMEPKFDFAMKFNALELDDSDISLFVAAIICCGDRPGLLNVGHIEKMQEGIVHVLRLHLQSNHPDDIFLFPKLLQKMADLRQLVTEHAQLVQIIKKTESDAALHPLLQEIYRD
Method: a) Determination of hPPARα Activity
Ligand binding domain of hPPARα was fused to DNA binding domain of Yeast transcription factor GAL4 in eucaryotic expression vector. Using superfect (Qiagen, Germany) as transfecting reagent HEK-293 cells were transfected with this plasmid and a reporter plasmid harboring the luciferase gene driven by a GAL4 specific promoter. Compound was added at different concentrations after 42 hrs of transfection and incubated overnight. Luciferase activity as a function of compound binding/activation capacity of PPARα was measured using Packard Luclite kit (Packard, USA) in Top Count (Ivan Sadowski, Brendan Bell, Peter Broag and Melvyn Hollis. Gene. 1992. 118: 137 -141; Superfect Transfection Reagent Handbook. February 1997, Qiagen, Germany).

Swiss albino mice = test: Plasma triglyceride and total cholesterol lowering activity in Swiss albino mice and guinea pigs; type: in vivo, mouse; conditions: dose 3 mg/kg, oral, 6 days
Method: c) Plasma Triglyceride and Total Cholesterol Lowering Activity in Swiss Albino Mice and Guinea Pigs
Male Swiss albino mice (SAM) and male Guinea pigs were obtained from NIN and housed in DRF animal house. All these animals were maintained under 12 hour light and dark cycle at 25±1° C. Animals were given standard laboratory chow (NIN, Hyderabad, India) and water, ad libitum. SAM of 20-25 g body weight range and Guinea pigs of 500-700 g body weight range were used (Oliver, P., Plancke, M. O., Marzin, D., Clavey, V., Sauzieres, J and Fruchart, J. C. Effects of fenofibrate, gemfibrozil and nicotinic acid on plasma lipoprotein levels in normal and hyperlipidemic mice. Atherosclerosis. 1988. 70: 107-114).
The test compounds were administered orally to Swiss albino mice at 0.3 to 30 mg/kg/day dose for 6 days. Control mice were treated with vehicle (0.25% Carboxymethylcellulose; dose 10 ml/kg). The test compounds were administered orally to Guinea pigs at 0.3 to 30 mg/kg/day dose for 6 days. Control animals were treated with vehicle (0.25% Carboxymethylcellulose; dose 5 ml/kg).
The blood samples were collected in fed state 1 hour after drug administration on 0 and 6 day of treatment. The blood was collected from the retro-orbital sinus through heparinised capillary in EDTA containing tubes. After centrifugation, plasma sample was separated for triglyceride and total cholesterol (Wieland, O. Methods of Enzymatic analysis. Bergermeyer, H. O., Ed., 1963. 211-214; Trinder, P. Ann. Clin. Biochem. 1969. 6: 24-27). Measurement of plasma triglyceride, total cholesterol and HDL were done using commercial kits (Dr. Reddy's Diagnostic Division, Hyderabad, India).
(§1) 1. Percent reduction in Blood sugar/triglycerides/total cholesterol were calculated according to the formula: [formula]

hPPARγ1 = target: T2, hPPARγ1 (Homo sapiens, UniProt P37231); test: Determination of hPPARγ activity (GAL4-LBD luciferase reporter in HEK-293 cells); type: cell-based; conditions: 1 μM compound, transfected HEK-293 cells
T2 construct: expressed in transfected cells; host or cells: HEK-293
T2 sequence (P37231 238-503 limits assumed): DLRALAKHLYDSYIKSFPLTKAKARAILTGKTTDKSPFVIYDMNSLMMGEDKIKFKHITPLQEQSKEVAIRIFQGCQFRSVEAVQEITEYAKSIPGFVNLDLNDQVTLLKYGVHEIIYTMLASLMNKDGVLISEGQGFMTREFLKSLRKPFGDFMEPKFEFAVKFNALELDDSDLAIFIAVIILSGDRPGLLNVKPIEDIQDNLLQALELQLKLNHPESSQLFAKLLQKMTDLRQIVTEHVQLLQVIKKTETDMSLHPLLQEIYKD
Method: b) Determination of hPPARγ Activity
Ligand binding domain of hPPARγ1 was fused to DNA binding domain of Yeast transcription factor GAL4 in eucaryotic expression vector. Using lipofectamine (Gibco BRL, USA) as transfecting reagent HEK-293 cells were transfected with this plasmid and a reporter plasmid harboring the luciferase gene driven by a GAL4 specific promoter. Compound was added at 1 μM concentration after 48 hrs of transfection and incubated overnight. Luciferase activity as a function of drug binding/activation capacity of PPARγ1 was measured using Packard Luclite kit (Packard, USA) in Packard Top Count (Ivan Sadowski, Brendan Bell, Peter Broag and Melvyn Hollis. Gene. 1992. 118: 137-141; Guide to Eukaryotic Transfections with Cationic Lipid Reagents. Life Technologies, GIBCO BRL, USA).

[1] = Single dose oral pharmacokinetic studies; type: in vivo; conditions: male Wistar rats, suspension in 0.25% sodium CMC
Method: Single Dose Oral Pharmacokinetic Studies
Male Wistar rats (220-250 gm) were used in the experiments. The animals were maintained under standard laboratory conditions and had free access to feed and water ad libitum. Before experimentation animals were fasted overnight (˜15 h) during which they had free access to water ad libitum.
An amount equivalent to 30 mg of drug was weighed accurately and transferred into a clean mortar and triturated to obtain a fine powder. To this 0.5 ml of 0.25% sodium carboxy methyl cellulose (sodium CMC) was added to obtain a paste. To the obtained paste remaining 2.5 ml of sodium CMC was added to make up the volume to 3 ml. Based on the animal weight appropriate volume (body weight×3) of the prepared suspension was administered through oral gavage.
After dosing, at designated time points (0.5, 1, 2, 3, 5, 8, 12 and 24 h) 200 μl of blood was collected from retro orbital plexus into 0.5 ml eppendorff tubes containing EDTA (10 μl of 200 mg/ml solution in Milli Q water). Blood was centrifuged at 12,800 rpm for 5 min and obtained plasma and stored at −20° C. till further analysis.
100 μl plasma was transferred into a clean and dry centrifuge tube. To this internal standard (10 μl of 100 μg/ml) was added and extracted with 2 ml of extraction recovery solvent. The contents were vortexed for 2 min, followed by centrifugation for 10 min at 2800 rpm. Clear organic layer (2×0.75 ml) was separated and dried under nitrogen gas at 50° C. The residue was reconstituted with 150 μl of mobile phase and vortexed for 20 sec, from this 50 μl was injected onto HPLC column.
Pharmacokinetic parameters were calculated by non-compartmental model analysis. The peak plasma concentration (Cmax) and the corresponding time (Tmax) were directly obtained from the raw data. The area under the plasma concentration versus time curve up to the last quantifiable time point, AUC(0-t) was obtained by the linear and log-linear trapezoidal summation. The AUC(0-t) extrapolated to infinity (i.e., AUC(0-∞)) by adding the quotient of Clast/Kel, where Clast represents the last measurable time concentration and Kel represents the apparent terminal rate constant. Kel was calculated by the linear regression of the log-transformed concentrations of the drug in the terminal phase. The half-life of the terminal elimination phase was obtained using the relationship

C57BL/KsJ-db/db mice = test: Blood sugar and triglyceride lowering in db/db mice; type: in vivo, mouse; conditions: dose 0.03 mg/kg, oral gavage daily for 6 days
Source text: Mutation in colonies of laboratory animals and different sensitivities to dietary regimens have made the development of animal models with non-insulin dependent diabetes and hyperlipidemia associated with obesity and insulin resistance possible. Genetic models such as db/db and ob/ob (Diabetes, (1982)31(1): 1-6) mice and zucker fa/fa rats have been developed by the various laboratories for understanding the pathophysiology of disease and testing the efficacy of new antidiabetic compounds (Diabetes, (1983)32: 830-838; Annu. Rep. Sankyo Res. Lab. (1994).46:1-57). […]
The random blood sugar and triglyceride levels were measured by collecting blood (100 μl) through orbital sinus, using heparinised capillary in tubes containing EDTA which was centrifuged to obtain plasma. The plasma glucose and triglyceride levels were measured spectrometrically, by glucose oxidase and glycerol 3 PO4 oxidase/peroxidase enzyme (Dr. Reddy's Lab. Diagnostic Division Kits, Hyderabad, India) methods respectively.
The blood sugar and triglycerides lowering activities of the test compound was calculated according to the formula.
as §1

Row | Structure (SMILES) | PPARα (luciferase activity) (hPPARα) | Triglyceride Lowering (%) (Swiss albino mice) | PPARγ (luciferase activity) (hPPARγ1) | melting point [°C] | further results
1 | CCO[C@@H](Cc1ccc(OCCN2CCSc3ccccc32)cc1)C(=O)O [Example 5, -Lysine salt of (−)-3-[4-[2-(3,4-dihydro-2H-1,4-benzothiazin-4-yl)ethoxy]phenyl]-2-ethoxy propanoic acid] | 3.5 | 46 | 7.6 |  | 
2 | CCO[C@@H](Cc1ccc(OCCN2CCSc3ccccc32)cc1)C(=O)O (as salt: salt) [Example 1] |  |  |  | 126 to 128 | 
3 | CCOC(Cc1ccc(OCCN2CCSc3ccccc32)cc1)C(=O)O (stereo in doubt) [Example 4, (R)-(+)-Methyl benzylamine salt of (−)-3-[4-[2-(3,4-dihydro-2H-1,4-benzothiazin-4-yl)ethoxy]phenyl]-2-ethoxy propanoic acid] |  | 55 |  |  | 
4 | CCO[C@@H](Cc1ccc(OCCN2CCSc3ccccc32)cc1)C(=O)O (as salt: salt) [Example 3, Dicyclohexylamine salt of (−)-3-[4-[2-(3,4-dihydro-2H-1,4-benzothiazin-4-yl)ethoxy]phenyl]-2-ethoxy propanoic acid] |  |  |  | 110 | 
5 | CCO[C@@H](Cc1ccc(OCCN2CCSc3ccccc32)cc1)C(=O)O [Example 2, Metformin salt of (−)-3-[4-[2-(3,4-dihydro-2H-1,4-benzothiazin-4-yl)ethoxy]phenyl]-2-ethoxy propanoic acid] | 3.0 | 55 | 9.8 |  | Ke1 [1]: 0.17 ± 0.03 h⁻¹; AUC(0-inf) ([1]; rat, plasma, 30 mg/kg): 320 ± 36.2 µg·h/mL; AUC(0-t) ([1]; rat, plasma, 30 mg/kg): 315 ± 34.7 µg·h/mL; Cmax ([1]; rat, plasma, 30 mg/kg): 77.2 ± 24.1 µg/mL; Tmax ([1]; rat, plasma, 30 mg/kg): 0.63 ± 0.25 h; half-life ([1]; rat, plasma, 30 mg/kg): 4.25 ± 0.86 h; Reduction in Blood Glucose Level (%) (C57BL/KsJ-db/db mice): 56%; Triglyceride Lowering (%) (C57BL/KsJ-db/db mice): 59%
6 | CCO[C@@H](Cc1ccc(OCCN2CCSc3ccccc32)cc1)C(=O)O (as salt: salt) [Example 2, Metformin salt of (−)-3-[4-[2-(3,4-dihydro-2H-1,4-benzothiazin-4-yl)ethoxy]phenyl]-2-ethoxy propanoic acid] |  |  |  | 155 to 158 | 
7 | CCO[C@@H](Cc1ccc(OCCN2CCSc3ccccc32)cc1)C(=O)O [Example 1] |  | 66 |  |  | 
8 | CCO[C@@H](Cc1ccc(OCCN2CCSc3ccccc32)cc1)C(=O)O (as salt: salt) [Example 5, -Lysine salt of (−)-3-[4-[2-(3,4-dihydro-2H-1,4-benzothiazin-4-yl)ethoxy]phenyl]-2-ethoxy propanoic acid] |  |  |  | 142 to 144 | 
9 | CCO[C@@H](Cc1ccc(OCCN2CCSc3ccccc32)cc1)C(=O)O [Example 3, Dicyclohexylamine salt of (−)-3-[4-[2-(3,4-dihydro-2H-1,4-benzothiazin-4-yl)ethoxy]phenyl]-2-ethoxy propanoic acid] | 5.2 |  | 19 |  | 
10 | CCO[C@@H](Cc1ccc(OCCN2CCSc3ccccc32)cc1)C(=O)O [Example 6, Amino guanidine hydrogen carbonate salt of (−)-3-[4-[2-(3,4-dihydro-2H-1,4-benzothiazin-4-yl)ethoxy]phenyl]-2-ethoxy propanoic acid] | 4.7 |  | 21 |  | 
